The text below walks through data of ChEMBL document CHEMBL1127465, “Rational design, synthesis, and crystallographic analysis of a hydroxyethylene-based HIV-1 protease inhibitor containing a heterocyclic P1'--P2' amide bond isostere” (J Med Chem, 1994).

The target of the test is Human immunodeficiency virus type 1 protease (Human immunodeficiency virus 1, UniProt Q72874). Nature of the test: Apparent inhibition constant against recombinant HIV-1 protease.
On to `CC(=O)c1c[nH]c([C@H](Cc2ccccc2)C[C@H](O)[C@H](Cc2ccccc2)NC(=O)OC(C)(C)C)n1`, for which the Ki was found to be 0.37 µM.
`CC(C)C(O)c1cnc([C@H](Cc2ccccc2)C[C@H](O)[C@H](Cc2ccccc2)NC(=O)OC(C)(C)C)[nH]1` (stereo not given in full): the Ki came out at 2.7 µM.
Take `CC(C)(C)OC(=O)N[C@@H](Cc1ccccc1)[C@@H](O)C[C@@H](Cc1ccccc1)c1nc(C=O)c[nH]1`: the Ki came out at 3.5 µM.
Consider `CC(C)(C)OC(=O)N[C@@H](Cc1ccccc1)C(=O)C(O)CN[C@@H](Cc1ccccc1)C(=O)NCC(N)=O` (stereo not given in full), for which the Ki came out at 0.12 µM.
With `CC(C)C(=O)c1cnc([C@H](Cc2ccccc2)C[C@H](O)[C@H](Cc2ccccc2)NC(=O)OC(C)(C)C)[nH]1`, the Ki is 0.083 µM.
Turning to `C=CC(C)(C)C(=O)c1cnc([C@H](Cc2ccccc2)C[C@H](O)[C@H](Cc2ccccc2)NC(=O)OC(C)(C)C)[nH]1`, the Ki worked out at 0.27 µM.
Take `CC(C)[C@@H](NC(=O)[C@@H](Cc1ccccc1)NCC(O)C(=O)[C@H](Cc1ccccc1)NC(=O)[C@H](C)NC(=O)OCc1ccccc1)C(=O)O` (stereo not given in full): the Ki was 0.0007 µM.
On to `CCCC(=O)c1c[nH]c([C@H](Cc2ccccc2)C[C@H](O)[C@H](Cc2ccccc2)NC(=O)OC(C)(C)C)n1`, for which the Ki is 0.15 µM.
For `CC(O)c1cnc([C@H](Cc2ccccc2)C[C@H](O)[C@H](Cc2ccccc2)NC(=O)OC(C)(C)C)[nH]1` (stereo not given in full) the value was 13.3 µM; for `CCC(=O)c1cnc([C@H](Cc2ccccc2)C[C@H](O)[C@H](Cc2ccccc2)NC(=O)OC(C)(C)C)[nH]1`, 0.092 µM.
